Source: patent publication US20250314644A1, “METHODS COMPRISING DETECTION OF ADP-HEPTOSE” (CHILDREN'S HOSPITAL MEDICAL CENTER, priority 2023, published 2025)

How the values were obtained:
MDS BM cells = experiment: Patient derived xenograft in NSG mice treated with ADP-heptose; assay type: in vivo, human; conditions: immunocompromised mice, after 28 days
Experimental: NOD.Cg-Prkdc^scidIl2rg^tm1Wj1/SzJ (NSG)^75 were bred and maintained by the CCHMC Comprehensive Mouse Core. For patient derived xenografts, NSG mice (sub-lethally conditioned with 2 Gy of whole-body irradiation) were injected tail vein with healthy CD34+ cells (1×10^6 cells per mouse) and MDS patient cells (5×10^6 cells per mouse) in 200 μl of sterile PBS. Mice were then given sterile water or ADP-heptose (0.5 mg/kg) dissolved in sterile water at the indicated times. Mice were monitored for human engraftment in BM aspirates Briefly, 1×10^6 BM cells from each sample were incubated with huCD45 (Cat no. 555485, BDPharmingen) and huCD33 (Cat no. 555450, BDPharmingen) antibodies diluted 1:100 in a solution of PBS, 0.2% FBS for 30 minutes on ice. Cells were washed once with PBS, resuspended in PBS with 0.2% FBS, and immediately analyzed by flow cytometry.

[1] = system: Dnmt3a^KO; Alpk1^KO cells; experiment: RNA-sequencing of HSPCs treated in vitro with ADP-heptose or H2O for 90 minutes; assay type: cell-based, mouse; conditions: vs H2O

SMILES: Nc1ncnc2c1ncn2[C@@H]1O[C@H](COP(=O)(O)OP(=O)(O)O[C@@H]2O[C@H]([C@H](O)CO)[C@@H](O)[C@H](O)[C@@H]2O)[C@@H](O)[C@H]1O [ADP-heptose, ADP-D-glycero-β-D-manno-heptose]
- expansion of xenografted MDS BM cells (MDS BM cells): expanded
- logFC 7fp418 [1]: −0.871
- logFC 1110019D14Rik [1]: −0.854
- logFC 1700037C18Rik [1]: 0.829
- logFC 2810408A11Rik [1]: −0.812
- logFC 4930451G09Rik [1]: 0.8284
- logFC 4933407K13Rik [1]: −0.692
- logFC 5031425F14Rik [1]: 0.715
- logFC 9330182L06Rik [1]: −1.241
- logFC A430105I19Rik [1]: 1.602
- logFC A930013F10Rik [1]: 0.5873
- logFC AI607873 [1]: 0.7333
- logFC Abcb4 [1]: 0.7782
- logFC Ambp [1]: 0.8742
- logFC Aqp1 [1]: 0.6005
- logFC Arg1 [1]: 1.214
- logFC Azin2 [1]: 0.7217
- logFC BC100530 [1]: −0.982
- logFC Bambi-ps1 [1]: −0.651
- logFC Caprin2 [1]: −0.787
- logFC Ces1d [1]: −0.735
- logFC Cgref1 [1]: 1.029
- logFC Ctsf [1]: −0.836
- logFC Ctsk [1]: −0.954
- logFC D630023F18Rik [1]: −0.819
- logFC Epha7 [1]: −0.73
- logFC Erdr1 [1]: −1.542
- logFC Foxd4 [1]: −0.677
- logFC Gas6 [1]: −0.682
- logFC Gbp9 [1]: 1.092
- logFC Gm4285 [1]: −1.087
- logFC Gm5069 [1]: −0.82
- logFC Gm15694 [1]: 0.9249
- logFC Gm16023 [1]: 0.8494
- logFC Gm21057 [1]: −1.133
- logFC Hist1h1e [1]: −0.799
- logFC Hist1h2be [1]: −1.019
- logFC Hist1h4h [1]: −1.162
- logFC Hmga1 [1]: −0.621
- logFC Irf7 [1]: 0.6473
- logFC Isg15 [1]: 0.6427
- logFC Kif1a [1]: −0.954
- logFC Kif9 [1]: 1.387
- logFC Lars2 [1]: −1.194
- logFC Lrrc51 [1]: 1.737
- logFC Ltc4s [1]: 0.978
- logFC Ly6i [1]: 0.764
- logFC Nefh [1]: 0.6222
- logFC Nr1h3 [1]: −0.655
- logFC Oas1g [1]: 0.6168
- logFC Oas2 [1]: 0.8787
- logFC Oas3 [1]: 0.6718
- logFC Oasl1 [1]: 0.7357
- logFC Oasl2 [1]: 0.9665
- logFC Paqr3 [1]: −0.758
- logFC Pcsk9 [1]: −1.15
- logFC Rhcg [1]: 1.146
- logFC Rn45s [1]: −1.533
- logFC Rsad2 [1]: 0.9464
- logFC Rtp4 [1]: 1.172
- logFC Sdhaf3 [1]: −0.856
- logFC Sfxn4 [1]: −1.009
- logFC Slfn5 [1]: 1.078
- logFC Stac3 [1]: 0.7901
- logFC Stbd1 [1]: 0.9881
- logFC Stxbp3-ps [1]: −0.814
- logFC Syp [1]: 0.7928
- logFC Tagln [1]: 1.205
- logFC Tchh [1]: 1.26
- logFC Tle6 [1]: −0.734
- logFC Usp18 [1]: 0.7247
- logFC Xaf1 [1]: 0.6469
- logFC Zbp1 [1]: 0.6712
- logFC Zdhhc2 [1]: 0.7176
- logFC Zdhhc15 [1]: 0.9343
- logFC Zfp54 [1]: −0.829
